Assay results published in ChEMBL document CHEMBL3045871, “Synthesis, biological screening and ADME prediction of benzylindole derivatives as novel anti-HIV-1, anti-fungal and anti-bacterial agents” (Med Chem Res, 2013).
Active and inactive are the calls of the source. The rule behind the calls is not given here.

Legend:
[1] = target: Human immunodeficiency virus type 1 reverse transcriptase (Human immunodeficiency virus 1) (UniProt Q72547); experiment: Inhibition of Human immunodeficiency virus 1 RT assessed at 20 ug after 1 hr by spectrophotometric analysis
Bacillus subtilis = experiment: Antibacterial activity against Bacillus subtilis; assay type: functional, organism-based
Aspergillus niger = experiment: Antifungal activity against Aspergillus niger; assay type: functional, organism-based
Penicillium chrysogenum = experiment: Antifungal activity against Penicillium chrysogenum; assay type: functional, organism-based
Candida albicans = experiment: Antifungal activity against Candida albicans; assay type: functional, organism-based
Aspergillus fumigatus = experiment: Antifungal activity against Aspergillus fumigatus; assay type: functional, organism-based
Salmonella typhi = experiment: Antibacterial activity against Salmonella enterica subsp. enterica serovar Typhi; assay type: functional, organism-based

Work on `COc1cc2c(C(=O)/C=C(\O)C(=O)O)cn(Cc3ccc(Cl)cc3Cl)c2cc1OC` yielded an inhibition [1] of 78.6%.
With `CCOC(=O)/C(O)=C/C(=O)c1cn(Cc2ccc(Cl)cc2Cl)c2ccc(OC)c(OC)c12` the Activity (Bacillus subtilis) was “Active”, the inhibition [1] was 87.7% and the Activity (Aspergillus niger) was “Active”. For the same compound, the Activity (Penicillium chrysogenum) was “Active”.
In the case of `COc1cc(OC)c2c(C(=O)/C=C(\O)C(=O)O)cn(Cc3ccc(Cl)cc3Cl)c2c1`, the inhibition [1] is reported as 79.2%.
With `CCOC(=O)/C(O)=C/C(=O)c1cn(Cc2ccc(Cl)cc2Cl)c2cc(OC)cc(OC)c12` the Activity (Bacillus subtilis) was “Active”, the Activity (Candida albicans) was “Active” and the inhibition [1] was 87.6%. The Activity (Penicillium chrysogenum) was “Active”.
`COc1ccc2c(c(C(=O)/C=C(\O)C(=O)O)cn2Cc2ccc(Cl)cc2Cl)c1OC` showed an inhibition [1] of 78.2%.
With `CC(=O)N1CCN(c2ccc(OCC3COC(Cn4ccnc4)(c4ccc(Cl)cc4Cl)O3)cc2)CC1` (centres undefined) the Activity (Aspergillus fumigatus) was “Active” and the Activity (Candida albicans) was “Active”.
`COc1ccc(OC)c2c1c(C(=O)/C=C(\O)C(=O)O)cn2Cc1ccc(Cl)cc1Cl` gave an inhibition [1] of 82.8%.
With `CCOC(=O)/C(O)=C/C(=O)c1cn(Cc2ccc(Cl)cc2Cl)c2cc(OC)c(OC)cc12` the Activity (Aspergillus fumigatus) was “Active”, the Activity (Bacillus subtilis) was “Active” and the Activity (Candida albicans) was “Active”. For the same compound, the inhibition [1] was 80.9%.
`CCOC(=O)/C(O)=C/C(=O)c1cn(Cc2ccc(Cl)cc2Cl)c2c(OC)ccc(OC)c12` was tested, and the Activity (Aspergillus fumigatus) was “Active”, the Activity (Salmonella typhi) was “Active” and the Activity (Candida albicans) was “Active”. The inhibition [1] was 86.5%, the Activity (Aspergillus niger) was “Active” and the Activity (Penicillium chrysogenum) was “Active”.
